# From patent US20260373497A1, “MOLECULAR MACHINES STIMULATE INTERCELLULAR CALCIUM WAVES AND CAUSE MUSCLE CONTRACTION” (William Marsh Rice University, priority 2022, published 2026)
# Experiments:
# N2A cells = assay: MM-induced calcium responses in N2A cells; format: cell-based; conditions: 400 nm, 250 ms, 3.2×10^2 W cm^−2
# Text: FIGS. 11A & 11B—ICW in N2A cells after stimulation with MM 1 and light. (a) Confocal images of N2A cells treated with MM 1 (blue) and calcium tracking dye (Fluo-4; green). The white circle in the top-left image depicts the area to which stimulus was delivered. The scale bar is 50 μm and applies to all images. (b) Fluo-4 fluorescence traces of N2A cells treated with MM 1 and stimulated with 250 ms pulse of 400 nm light delivered to a 5 μm diameter circular region of interest at 3.2×10^2 W cm^−2 stimulation power.
# Cell Culture and Preparation of Cells for Microscopy: HEK293 cells were chosen as the principal model system due to their prevalence in electrophysiological interrogation. […] HEK293 cells, HeLa cells, and N2A cells were cultured in DMEM (10% FBS, 1% penicillin/streptomycin) and passaged at <90% confluence. […]
# In Vitro Imaging and Stimulation: Cells were loaded in a Nikon A1-Rsi confocal system mounted on a widefield Ti-E fluorescence microscope. […] Laser stimulation for in vitro experiments was performed with a 400 nm photodiode laser (Coherent OBIS™ LX SF) operating in a fluorescence-recovery-after-photobleaching (FRAP) experiment mode, delivering up to 6.4×10^2 W cm^−2 at sample level. […] Fluo-4 fluorescence was collected for 30 s before and 2 min after stimulation. […]
# HEK293 cells = assay: Pharmacological blocking of MM 1-induced calcium responses; format: cell-based; conditions: MM 1 + light in calcium-free PBS
# Experimental: FIGS. 14A-14J—Mechanistic study of MM-induced ICW. (a) Schematic of possible mechanisms by which calcium can enter the cytoplasm. Prepared with Biorender.com. (b) Confocal microscope images of HEK293 cells treated with MM 1, MitoTracker Green, ER Tracker Red, and CellMask Deep Red. Scale bars are both 20 μm and apply to the images in the same row. (c-h) Calcium waves elicited by MM 1-treated cells (c) in calcium-free PBS, (d) in RR (1 μM), (e) in Gd^3+ (50 μM), (f) after treatment of cells with Th (1 μM), (g) in Ry (100 μM), (h) in XeC (25 μM), (i) in U-73 (10 μM), (j) after pre-treatment of cells with Cyto D (2 μM). The solid line represents the calcium profiles averaged from six independent cells. The shaded region represents the standard error of the mean (n=6). Stimuli were presented after 30 s of imaging in each case, and the time of stimulus presentation is indicated by the vertical cyan line. […] All stimuli were delivered with a pulse width of 250 ms to a circular area of diameter 5 μm at a power ranging from 3.2×10^2 W cm^−2 to 5.1×10^2 W cm^−2. For all plots, the cyan line indicates the time of stimulus presentation. Controls and experimental groups were imaged and stimulated on the same day using the same conditions and with the same batch of cells. Error bars in the bar graphs represent the standard deviation of the mean of n=3 experiments (at least 6 stimulated cells per experiment). Statistical analyses were performed using a one-tailed Welch's t-test. * P-value<0.05, ** P-value<0.01, *** P-value<0.001, **** P-value<0.0001.
# Imaging was conducted in imaging extracellular buffer (iECB; 119 mM NaCl, 5 mM KCl, 10 mM HEPES, 2 mM CaCl2, 1 mM MgCl2 (pH 7.2); 320 mOsm). Imaging in calcium-free medium was conducted in phosphate-buffered saline. Cells were prepared for imaging by seeding a 35 mm Ibidi imaging dish with ~50,000 cells in 1 mL of DMEM, and grown at 37 °C, 5% CO2 for 2 days. Prior to imaging, cells were incubated with dyes and/or molecules resuspended in complete growth medium at the appropriate concentration (MM 1 (8 μM), MM 2 (8 μM), MM 3 (24 μM), MM 4 (8 μM), Fluo-4 (2 μM)). MM and Fluo-4 were loaded into cells for 45 min. Cells treated with thapsigargin were exposed for 30 min after MM and Fluo-4 loading. Cells treated with organelle-targeting dyes were exposed for 5 min after MM loading. Ruthenium red and Gd^3+ were included in the imaging medium during stimulation and were associated with cells for 10 min prior to imaging. At the end of incubation, this medium was replaced with the iECB. Unless otherwise specified, all experiments were replicated in triplicate.
# Pharmacological Experiments: In pharmacological blocking experiments, cells were loaded with MM and Fluo-4 as previously described. Typical imaging experiments in previously described extracellular buffer were then conducted as a positive control. Then, the imaging buffer was replaced, and the cells were treated as required for each experiment. After a brief recovery period, the cells were imaged again, and six different cells were stimulated. Experiments in calcium-free imaging buffer used phosphate buffered saline. Thapsigargin (Th: 1 μM) and Cytochalasin D (Cyto D; 2 μM) were incubated with cells in complete growth medium for 1 h (Th) or 2 h (Cyto D) before imaging. Ruthenium red (RR; 1 μM), gadolinium (Gd; 50 μM), ryanodine (Ry; 100 μM), xestospongin C (XeC; […]), and U-73122 (U-73; 10 μM) were administered directly into the imaging medium. Cells were incubated in the medium for ~5 min prior to imaging. Traces presented are representative results across at least six cells from single experiments, while bar graphs represent the average results across at least three distinct experiments.
# C2C12 myoblasts = assay: Localization of MM 1 in C2C12 cells; format: cell-based, mouse; conditions: 45 minutes of incubation
compound,measurement,setting,value
CC1Cc2ccc3ccccc3c2C1=C1c2ccccc2Sc2cc(NCCN(C)C)ccc21 (stereo not drawn) [MM 1],Calcium responses induced by MM 1 actuation,N2A cells,also observed
same,Calcium response amplitude in absence of extracellular calcium,HEK293 cells,showed no differences in response amplitude compared to a positive control in calcium-containing medium
same,Cell permeation,C2C12 myoblasts,permeate through the cell membrane after 45 minutes of incubation
